Drawing on patent US8895733B2 (Novartis AG, priority 2010, dated 2014), this text covers IC50 for 22 compounds.

The target of this assay is T1, Nav 1.7 (Homo sapiens, UniProt Q15858).
T1 construct: expressed in transfected cells
T1 sequence (Q15858 whole entry): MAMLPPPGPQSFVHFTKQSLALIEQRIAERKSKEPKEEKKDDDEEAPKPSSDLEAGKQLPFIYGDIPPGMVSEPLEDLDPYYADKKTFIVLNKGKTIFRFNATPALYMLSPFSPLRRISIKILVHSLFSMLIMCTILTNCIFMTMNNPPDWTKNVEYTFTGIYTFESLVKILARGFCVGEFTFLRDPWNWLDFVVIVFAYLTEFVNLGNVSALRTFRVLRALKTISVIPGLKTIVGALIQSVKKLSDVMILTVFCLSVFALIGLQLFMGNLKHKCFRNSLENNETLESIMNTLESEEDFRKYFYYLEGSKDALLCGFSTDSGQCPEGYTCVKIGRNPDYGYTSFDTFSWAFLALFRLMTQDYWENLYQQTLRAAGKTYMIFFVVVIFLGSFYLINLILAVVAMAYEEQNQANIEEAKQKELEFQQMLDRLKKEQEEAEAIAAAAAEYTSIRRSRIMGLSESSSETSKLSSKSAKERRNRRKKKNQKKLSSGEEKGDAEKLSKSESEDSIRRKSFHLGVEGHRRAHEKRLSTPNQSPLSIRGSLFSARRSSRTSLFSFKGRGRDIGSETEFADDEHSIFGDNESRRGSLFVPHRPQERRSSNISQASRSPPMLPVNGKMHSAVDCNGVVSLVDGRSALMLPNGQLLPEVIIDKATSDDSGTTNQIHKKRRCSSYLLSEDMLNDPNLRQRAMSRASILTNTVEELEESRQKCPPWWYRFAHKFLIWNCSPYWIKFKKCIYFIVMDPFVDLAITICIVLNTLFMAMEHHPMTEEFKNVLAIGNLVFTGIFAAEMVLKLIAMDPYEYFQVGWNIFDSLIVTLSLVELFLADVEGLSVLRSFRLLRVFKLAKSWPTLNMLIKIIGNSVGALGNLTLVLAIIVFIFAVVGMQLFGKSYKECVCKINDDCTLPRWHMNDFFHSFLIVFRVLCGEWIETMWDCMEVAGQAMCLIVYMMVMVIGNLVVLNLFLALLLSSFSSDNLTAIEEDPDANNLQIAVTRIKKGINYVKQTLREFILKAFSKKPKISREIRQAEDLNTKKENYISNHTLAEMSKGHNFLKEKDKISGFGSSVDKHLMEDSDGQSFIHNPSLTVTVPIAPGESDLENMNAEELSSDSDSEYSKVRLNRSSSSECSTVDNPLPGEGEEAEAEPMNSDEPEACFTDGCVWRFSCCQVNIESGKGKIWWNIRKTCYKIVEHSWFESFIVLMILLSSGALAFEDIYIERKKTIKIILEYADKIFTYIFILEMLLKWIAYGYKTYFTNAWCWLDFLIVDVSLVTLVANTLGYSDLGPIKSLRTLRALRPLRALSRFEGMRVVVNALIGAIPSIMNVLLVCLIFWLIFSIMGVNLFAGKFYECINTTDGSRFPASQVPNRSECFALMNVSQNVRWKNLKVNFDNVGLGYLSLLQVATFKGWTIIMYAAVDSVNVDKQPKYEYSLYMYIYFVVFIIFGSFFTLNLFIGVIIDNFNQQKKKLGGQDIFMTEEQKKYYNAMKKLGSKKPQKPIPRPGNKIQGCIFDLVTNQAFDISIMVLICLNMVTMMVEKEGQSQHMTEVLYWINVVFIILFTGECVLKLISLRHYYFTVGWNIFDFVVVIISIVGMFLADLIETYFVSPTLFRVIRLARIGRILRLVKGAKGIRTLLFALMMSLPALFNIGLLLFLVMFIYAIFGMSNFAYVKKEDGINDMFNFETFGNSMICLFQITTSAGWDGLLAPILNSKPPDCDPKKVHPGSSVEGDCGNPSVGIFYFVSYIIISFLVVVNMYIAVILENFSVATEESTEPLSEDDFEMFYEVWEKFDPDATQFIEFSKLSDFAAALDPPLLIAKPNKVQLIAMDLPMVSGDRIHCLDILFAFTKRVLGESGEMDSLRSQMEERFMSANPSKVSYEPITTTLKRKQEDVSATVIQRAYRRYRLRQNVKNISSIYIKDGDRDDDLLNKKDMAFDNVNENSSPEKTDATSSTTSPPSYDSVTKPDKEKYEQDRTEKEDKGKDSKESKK
Put plainly: Whole-cell voltage clamp electrophysiology, automated patch clamp (marker c in Table of Examples). The assay is classed as cell-based. To be noted: marker c = Automated patch clamp data; read-out: Nav 1.7 activity. In short, it runs like this: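 Human NaV1.7 currents were recorded by whole-cell automated patch clamp, on IonWorks Quattro or another automated platform, typically in perforated-patch configuration. The stimulus protocol was designed to probe block mainly of the inactivated state, with a typical sweep stepping from about −65 mV holding to −10 mV, then −100 mV.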
For the compound `CN(c1ccccc1)c1nc(N)nc(-c2noc([C@H]3CCCN3C(=O)CC3CC3)n2)n1` [Example 449, 1-[(2R)-2-(3-{4-amino-6-[methyl(phenyl)amino]-1,3,5-triazin-2-yl}-1,2,4-oxadiazol-5-yl)pyrrolidin-1-yl]-2-cyclopropylethan-1-one], the IC50 stood at 2.57 µM.

With `CN(c1ccccc1)c1nc(N)nc(-c2noc([C@@H]3CCCN3C(=O)CC3CC3)n2)n1` [Example 450, 1-[(2S)-2-(3-{4-amino-6-[methyl(phenyl)amino]-1,3,5-triazin-2-yl}-1,2,4-oxadiazol-5-yl)pyrrolidin-1-yl]-2-cyclopropylethan-1-one], the IC50 was determined as 9.53 µM.

Turning to `CN(c1ccccc1)c1nc(N)nc(-c2noc([C@@H]3CCCN3C(=O)CC(F)(F)F)n2)n1` [Example 451, 1-[(2S)-2-(3-{4-amino-6-[methyl(phenyl)amino]-1,3,5-triazin-2-yl}-1,2,4-oxadiazol-5-yl)pyrrolidin-1-yl]-3,3,3-trifluoropropan-1-one], the IC50 is 7.95 µM.

`CN(c1ccccc1)c1nc(N)nc(-c2noc(-c3ccc(SCC4CC4)nc3)n2)n1` [Example 452, 6-(5-{6-[(cyclopropylmethyl)sulfanyl]pyridin-3-yl}-1,2,4-oxadiazol-3-yl)-2-N-methyl-2-N-phenyl-1,3,5-triazine-2,4-diamine]: the IC50 turned out to be 0.061 µM.

As to `CN(c1ccccc1)c1nc(N)nc(-c2noc(-c3ccc(SCCC(F)(F)F)nc3)n2)n1` [Example 453, 2-N-methyl-2-N-phenyl-6-{5-{6-[(3,3,3-trifluoropropyl)sulfanyl]pyridin-3-yl}-1,2,4-oxadiazol-3-yl)-1,3,5-triazine-2,4-diamine], the IC50 was 0.121 µM.

`CN(c1ccccc1)c1nc(N)nc(-c2noc(-c3ccc(S(=O)(=O)CCC(F)(F)F)nc3)n2)n1` [Example 454, 2-N-methyl-2-N-phenyl-6-(5-{6-[(3,3,3-trifluoropropane)sulfonyl]pyridin-3-yl}-1,2,4-oxadiazol-3-yl)-1,3,5-triazine-2,4-diamine]: the IC50 stood at 0.29 µM.

With `CN(c1ccccc1)c1nc(N)nc(-c2noc(-c3ccc([S+]([O-])CCC(F)(F)F)nc3)n2)n1` (stereo not shown) [Example 455, 2-N-methyl-2-N-phenyl-6-(5-{6-[(3,3,3-trifluoropropane)sulfinyl]pyridin-3-yl}-1,2,4-oxadiazol-3-yl)-1,3,5-triazine-2,4-diamine], the IC50 amounted to 0.057 µM.

With `CN(c1ccccc1)c1nc(N)nc(-c2noc(-c3ccc([S+]([O-])CC4CC4)nc3)n2)n1` (stereo not shown) [Example 456, 6-{5-[6-(cyclopropylmethane)sulfinylpyridin-3-yl]-1,2,4-oxadiazol-3-yl}-2-N-methyl-2-N-phenyl-1,3,5-triazine-2,4-diamine], the IC50 was 0.31 µM.

Consider `Nc1nc(Nc2ccccc2)nc(-c2noc(C(=O)N3CCC(OCC(F)(F)F)CC3)n2)n1` [Example 457, 2-N-phenyl-6-(5-{[4-(2,2,2-trifluoroethoxy)piperidin-1-yl]carbonyl}-1,2,4-oxadiazol-3-yl)-1,3,5-triazine-2,4-diamine], for which the IC50 stood at 1.3 µM.

Take `CCOC1CCN(C(=O)c2nc(-c3nc(N)nc(N(C)c4ccccc4)n3)no2)CC1` [Example 458, 6-{5-[(4-ethoxypiperidin-1-yl)carbonyl]-1,2,4-oxadiazol-3-yl}-2-N-methyl-2-N-phenyl-1,3,5-triazine-2,4-diamine]: the IC50 was 4.72 µM.

For the compound `CN(c1ccccc1)c1nc(N)nc(-c2noc(C(=O)N3CCC(COCC4CC4)CC3)n2)n1` [Example 459, 6-[5-({4-[(cyclopropylmethoxy)methyl]piperidin-1-yl}carbonyl)-1,2,4-oxadiazol-3-yl]-2-N-methyl-2-N-phenyl-1,3,5-triazine-2,4-diamine], the IC50 came out at 3.25 µM.

As for `CN(c1ccccc1)c1nc(N)nc(-c2noc(C(=O)N3CCC(COCC(F)(F)F)CC3)n2)n1` [Example 460, 2-N-methyl-2-N-phenyl-6-[5-({4-[(2,2,2-trifluoroethoxy)methyl]piperidin-1-yl]carbonyl)-1,2,4-oxadiazol-3-yl]-1,3,5-triazine-2,4-diamine], the IC50 came to 3.03 µM.

As to `Nc1nc(Nc2ccccc2)nc(-c2noc(C(=O)N3CCC(COCC(F)(F)F)CC3)n2)n1` [Example 461, 2-N-phenyl-6-[5-({4-[(2,2,2-trifluoroethoxy)methyl]piperidin-1-yl}carbonyl)-1,2,4-oxadiazol-3-yl]-1,3,5-triazine-2,4-diamine], the IC50 came to 1.64 µM.

Take `Nc1nc(Nc2ccccc2)nc(-c2noc(C(=O)N3CCC(OCC4CC4)CC3)n2)n1` [Example 462, 6-(5-{[4-(cyclopropylmethoxy)piperidin-1-yl]carbonyl}-1,2,4-oxadiazol-3-yl)-2-N-phenyl-1,3,5-triazine-2,4-diamine]: the IC50 is 3.61 µM.

As for `Nc1nc(Nc2ccccc2)nc(-c2noc(C(=O)N3CCC(COCC4CC4)CC3)n2)n1` [Example 463, 6-[5-({4-[(cyclopropylmethoxy)methyl]piperidin-1-yl}carbonyl)-1,2,4-oxadiazol-3-yl]-2-N-phenyl-1,3,5-triazine-2,4-diamine], the IC50 is 1.82 µM.

Consider `CN(c1ccccc1)c1nc(N)nc(-c2noc(C(=O)N3CCC(COCCC(F)(F)F)CC3)n2)n1` [Example 464, 2-N-Methyl-2-N-phenyl-6-[5-({4-[(3,3,3-trifluoropropoxy)methyl]piperidin-1-yl}carbonyl)-1,2,4-oxadiazol-3-yl]-1,3,5-triazine-2,4-diamine], for which the IC50 is 0.719 µM.

Take `CN(c1ccccc1)c1nc(N)nc(-c2noc(C(=O)N3CCC(SCC(F)(F)F)CC3)n2)n1` [Example 465, 2-N-methyl-2-N-phenyl-6-[5-({4-[(2,2,2-trifluoroethyl)sulfanyl]piperidin-1-yl}carbonyl)-1,2,4-oxadiazol-3-yl]-1,3,5-triazine-2,4-diamine]: the IC50 worked out at 1.04 µM.

Take `Nc1nc(Nc2ccccc2)nc(-c2noc(C(=O)N3CCC(SCC(F)(F)F)CC3)n2)n1` [Example 466, 2-N-phenyl-6-[5-({4-[(2,2,2-trifluoroethyl)sulfanyl]piperidin-1-yl}carbonyl)-1,2,4-oxadiazol-3-yl]-1,3,5-triazine-2,4-diamine]: the IC50 was 0.741 µM.

As to `Cc1ncc(-c2nc(-c3nc(N)nc(N(C)c4ccccc4)n3)no2)cn1` [Example 467, 2-N-methyl-6-[5-(2-methylpyrimidin-5-yl)-1,2,4-oxadiazol-3-yl]-2-N-phenyl-1,3,5-triazine-2,4-diamine], the IC50 worked out at 9.93 µM.

Regarding `CN(c1ccccc1)c1nc(N)nc(-c2noc(-c3cnccn3)n2)n1` [Example 468, 2-N-methyl-2-N-phenyl-6-[5-(pyrazin-2-yl)-1,2,4-oxadiazol-3-yl]-1,3,5-triazine-2,4-diamine], the IC50 was determined as 8.91 µM.

Regarding `CN(c1ccccc1)c1nc(N)nc(-c2noc(-c3ccnnc3)n2)n1` [Example 469, 2-N-methyl-2-N-phenyl-6-[5-(pyridazin-4-yl)-1,2,4-oxadiazol-3-yl]-1,3,5-triazine-2,4-diamine], the IC50 stood at 2.92 µM.

On to `CN(c1ccccc1)c1nc(N)nc(-c2noc(-c3ccc(NCC(F)(F)F)cn3)n2)n1` [Example 471, 2-N-methyl-2-N-phenyl-6-(5-{5-[(2,2,2-trifluoroethyl)amino]pyridin-2-yl}-1,2,4-oxadiazol-3-yl)-1,3,5-triazine-2,4-diamine], for which the IC50 worked out at 0.731 µM.
